From patent US10954232B2, “Pyrazole derivative as ALK5 inhibitor and uses thereof” (HANMI PHARMACEUTICAL CO., LTD., priority 2016, dated 2021) come the findings set out here.

Bounds are passed on as bounds.

The assay concerns the target T1, ALK5 kinase (Homo sapiens, UniProt P36897).
T1 construct: GST; purchased Thermo Fisher Scientific Solutions
T1 sequence (P36897 34-503): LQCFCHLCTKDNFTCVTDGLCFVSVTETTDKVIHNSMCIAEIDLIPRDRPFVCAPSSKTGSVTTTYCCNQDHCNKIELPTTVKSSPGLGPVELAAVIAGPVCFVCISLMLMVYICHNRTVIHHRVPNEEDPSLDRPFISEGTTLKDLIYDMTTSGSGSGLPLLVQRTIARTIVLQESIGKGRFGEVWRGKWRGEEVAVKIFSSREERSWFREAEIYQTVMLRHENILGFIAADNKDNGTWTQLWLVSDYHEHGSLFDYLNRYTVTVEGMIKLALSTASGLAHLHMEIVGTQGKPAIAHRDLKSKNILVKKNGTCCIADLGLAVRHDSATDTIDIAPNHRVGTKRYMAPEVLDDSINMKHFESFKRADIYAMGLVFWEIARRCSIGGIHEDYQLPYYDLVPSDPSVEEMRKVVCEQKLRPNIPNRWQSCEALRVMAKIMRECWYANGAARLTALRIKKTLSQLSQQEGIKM
The experiment in a line: Activity inhibition test on ALK5 enzyme (LanthaScreen Eu binding kinase assay). The note with it: kinase tracer 178, 60 minutes at room temperature. In outline: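 TR-FRET tracer-displacement format with final 5 nM ALK5, 2 nM Eu-GST antibody and 10 nM kinase tracer 178. Compound dilution series ran 1 μM–0.0001 μM, incubated 60 min at room temperature with stirring. Fluorescence was read ([…]), and IC50 came from percent inhibition versus control.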
As a reminder, the IC50 is the concentration at which inhibition is half-maximal. Lower therefore signals greater potency in that assay. On to `CN(C)c1ccc(NC(=O)c2cc(-c3ccc4nccnc4c3)n(-c3cc(Cl)ccc3F)n2)cc1` [Example 204, 1-(5-chloro-2-fluorophenyl)-N-(4-(dimethylamino)phenyl)-5-(quinoxalin-6-yl)-1H-pyrazole-3-carboxyamide], for which the concentration for half-maximal inhibition (IC50) is roughly 100 nM.
The same measure for `Cc1cccc(-n2nc(C(=O)Nc3ccccc3Br)cc2-c2ccc3ncnn3c2)n1` [Example 130, 5-([1,2,4]triazolo[1,5-α]pyridin-6-yl)-N-(2-bromophenyl)-1-(6-methylpyridin-2-yl)-1H-pyrazole-3-carboxyamide]: 10 to 100 nM; for `Cc1cccc(-n2nc(C(=O)Nc3ccc(S(C)(=N)=O)cc3)cc2-c2ccc3ncsc3c2)n1` (stereo not shown) [Example 89, 5-(benzo[d]thiazol-6-yl)-1-(6-methylpyridin-2-yl)-N-(4-(S-methylsulfonimidoyl)phenyl)-1H-pyrazole-3-carboxyamide]: 3.5 nM.
The same measure for `Cc1cccc(-n2nc(C(=O)Nc3cccc(Cl)c3)cc2-c2ccc3ncsc3c2)n1` [Example 32, 5-(benzo[d]thiazol-6-yl)-N-(3-chlorophenyl)-1-(6-methylpyridin-2-yl)-1H-pyrazole-3-carboxyamide]: 10 to 100 nM.
`Cc1cccc(-n2nc(C(=O)Nc3cccc(F)c3)cc2-c2ccc3nccnc3c2)n1` [Example 184, N-(3-fluorophenyl)-1-(6-methylpyridin-2-yl)-5-(quinoxalin-6-yl)-1H-pyrazole-3-carboxyamide] yielded a half-maximal inhibitory concentration (IC50) of 10 to 100 nM.
The same measure for `Cc1cccc(-n2nc(C(=O)Nc3ccc(S(=O)(=O)C(F)(F)F)cc3)cc2-c2ccc3ncsc3c2)n1` [Example 57, 5-(benzo[d]thiazol-6-yl)-1-(6-methylpyridin-2-yl)-N-(4-((trifluoromethyl)sulfonyl)phenyl)-1H-pyrazole-3-carboxyamide]: 45 nM; for `COc1cc(NC(=O)c2cc(-c3ccc4ncsc4c3)n(-c3cccc(C)n3)n2)ccn1` [Example 66, 5-(benzo[d]thiazol-6-yl)-N-(2-methoxypyridin-4-yl)-1-(6-methylpyridin-2-yl)-1H-pyrazole-3-carboxyamide]: 3.2 nM; for `Cc1cccc(-n2nc(C(=O)Nc3ccnc(S(C)(=O)=O)c3)cc2-c2ccc3ncsc3c2)n1` [Example 70, 5-(benzo[d]thiazol-6-yl)-1-(6-methylpyridin-2-yl)-N-(2-(methylsulfonyl)pyridin-4-yl)-1H-pyrazole-3-carboxyamide]: 4.6 nM.
Take `Cc1cccc(-n2nc(C(=O)Nc3ccc(F)cc3F)cc2-c2ccc3ncnn3c2)n1` [Example 134, 5-([1,2,4]triazolo[1,5-α]pyridin-6-yl)-N-(2,4-difluorophenyl)-1-(6-methylpyridin-2-yl)-1H-pyrazole-3-carboxyamide]: the 50% inhibitory concentration (IC50) is 10 to 100 nM.
For `CNC(=O)c1ccc(NC(=O)c2cc(-c3ccc4nccnc4c3)n(-c3cccc(C)n3)n2)cc1` [Example 182, N-(4-(methylcarbamoyl)phenyl)-1-(6-methylpyridin-2-yl)-5-(quinoxalin-6-yl)-1H-pyrazole-3-carboxyamide], the IC50 was less than 100 nM.
The result for `Cc1cccc(-n2nc(C(=O)Nc3ccc(Cl)cc3)cc2-c2ccc3ncsc3c2)n1` [Example 33, 5-(benzo[d]thiazol-6-yl)-N-(4-chlorophenyl)-1-(6-methylpyridin-2-yl)-1H-pyrazole-3-carboxyamide] reads 10 to 100 nM; that for `Cc1cccc(-n2nc(C(=O)Nc3ccc(CN4CCOCC4)cc3)cc2-c2ccc3nccnc3c2)n1` [Example 177, 1-(6-methylpyridin-2-yl)-N-(4-(morpholinomethyl)phenyl)-5-(quinoxalin-6-yl)-1H-pyrazole-3-carboxyamide], roughly 100 nM; that for `CN(C)c1ccc(NC(=O)c2cc(-c3ccc4nccnc4c3)n(-c3cccc(C(F)(F)F)n3)n2)cc1` [Example 206], greater than 100 nM.
The same measure for `COc1ccc(NC(=O)c2cc(-c3ccnc4ccccc34)n(-c3cccc(C)n3)n2)cc1` [Example 210, N-(4-methoxyphenyl)-1-(6-methylpyridin-2-yl)-5-(quinolin-4-yl)-1H-pyrazole-3-carboxyamide]: 10 to 100 nM; for `Cc1cccc(-n2nc(C(=O)Nc3ccc(NS(=O)(=O)C4CC4)cc3)cc2-c2ccc3ncsc3c2)n1` [Example 55, 5-(benzo[d]thiazol-6-yl)-N-(4-(cyclopropanesulfonamido)phenyl)-1-(6-methylpyridin-2-yl)-1H-pyrazole-3-carboxyamide]: 4.2 nM.
Compound `Cc1cccc(-n2nc(C(=O)Nc3ccccc3)cc2-c2ccc3ncnn3c2)n1` [Example 114, 5-([1,2,4]triazolo[1,5-α]pyridin-6-yl)-1-(6-methylpyridin-2-yl)-N-phenyl-1H-pyrazole-3-carboxyamide] came in with a half-maximal inhibitory concentration (IC50) of 9.5 nM.
In turn, `CC(=O)N1CCN(c2ccc(NC(=O)c3cc(-c4ccc5ncnn5c4)n(-c4cccc(C)n4)n3)cc2)CC1` [Example 108, 5-([1,2,4]triazolo[1,5-α]pyridin-6-yl)-N-(4-(4-acetylpiperazin-1-yl)phenyl)-1-(6-methylpyridin-2-yl)-1H-pyrazole-3-carboxyamide] gave an IC50 of roughly 10 nM.
The same measure for `CC(=O)c1ccc(NC(=O)c2cc(-c3ccc4ncnn4c3)n(-c3cccc(C)n3)n2)cc1` [Example 123, 5-([1,2,4]triazolo[1,5-α]pyridin-6-yl)-N-(4-acetylphenyl)-1-(6-methylpyridin-2-yl)-1H-pyrazole-3-carboxyamide]: 10 to 100 nM; for `CC(=O)Nc1ccc(CNC(=O)c2cc(-c3ccc4ncnn4c3)n(-c3cccc(C)n3)n2)cc1` [Example 161, 5-([1,2,4]triazolo[1,5-α]pyridin-6-yl)-N-(4-acetamidobenzyl)-1-(6-methylpyridin-2-yl)-1H-pyrazole-3-carboxyamide]: 10 to 100 nM.
For `Cc1cccc(-n2nc(C(=O)Nc3cccc(N)c3)cc2-c2ccc3ncsc3c2)n1` [Example 11, 5-(benzo[d]thiazol-6-yl)-N-(3-aminophenyl)-1-(6-methylpyridin-2-yl)-1H-pyrazole-3-carboxyamide], the IC50 stood at 2.2 nM.
`Cc1cccc(-n2nc(C(=O)Nc3ccc(NC4CC4)cc3)cc2-c2ccc3ncsc3c2)n1` [Example 88, 5-(benzo[d]thiazol-6-yl)-N-(4-(cyclopropylamino)phenyl)-1-(6-methylpyridin-2-yl)-1H-pyrazole-3-carboxyamide] came in with a half-inhibitory concentration (IC50) of 3.5 nM.
On to `CC(=O)N1CCN(c2ccc(NC(=O)c3cc(-c4ccc5nccnc5c4)n(-c4cccc(C)n4)n3)cc2)CC1` [Example 173, N-(4-(4-acetylpiperazin-1-yl)phenyl)-1-(6-methylpyridin-2-yl)-5-(quinoxalin-6-yl)-1H-pyrazole-3-carboxyamide], for which the IC50 lay in the range of 10 to 100 nM.
The result for `Cc1cccc(-n2nc(C(=O)Nc3ccc(S(C)(=N)=O)cc3)cc2-c2ccc3ncnn3c2)n1` (stereo not drawn) [Example 149, 5-([1,2,4]triazolo[1,5-α]pyridin-6-yl)-N-(4-(S-methylsulfonimidoyl)phenyl)-1-(6-methylpyridin-2-yl)-1H-pyrazole-3-carboxyamide] reads 7.7 nM; that for `CCCS(=O)(=O)c1ccc(NC(=O)c2cc(-c3ccc4ncsc4c3)n(-c3cccc(C)n3)n2)cc1` [Example 42, 5-(benzo[d]thiazol-6-yl)-1-(6-methylpyridin-2-yl)-N-(4-(propylsulfonyl)phenyl)-1H-pyrazole-3-carboxyamide], 2.2 nM; that for `CSc1ccc(NC(=O)c2cc(-c3ccc4ncsc4c3)n(-c3cccc(C)n3)n2)cc1` [Example 36, 5-(benzo[d]thiazol-6-yl)-1-(6-methylpyridin-2-yl)-N-(4-(methylthio)phenyl)-1H-pyrazole-3-carboxyamide], less than 10 nM.
As for `CC(=O)c1ccc(NC(=O)c2cc(-c3ccc4nccnc4c3)n(-c3cccc(C)n3)n2)cc1` [Example 178, N-(4-acetylphenyl)-1-(6-methylpyridin-2-yl)-5-(quinoxalin-6-yl)-1H-pyrazole-3-carboxyamide], the IC50 fell in the range of 10 to 100 nM.
The same measure for `Cc1cccc(-n2nc(C(=O)Nc3ccc([S+](C)[O-])cc3)cc2-c2ccc3ncsc3c2)n1` (stereo not shown) [Example 39, 5-(benzo[d]thiazol-6-yl)-1-(6-methylpyridin-2-yl)-N-(4-(methylsulfinyl)phenyl)-1H-pyrazole-3-carboxyamide]: 2.4 nM; for `Cc1cccc(-n2nc(C(=O)Nc3ccc(Br)cc3)cc2-c2ccc3nccnc3c2)n1` [Example 191, N-(4-bromophenyl)-1-(6-methylpyridin-2-yl)-5-(quinoxalin-6-yl)-1H-pyrazole-3-carboxyamide]: 10 to 100 nM; for `CC(=O)c1cccc(NC(=O)c2cc(-c3ccc4nccnc4c3)n(-c3cccc(C)n3)n2)c1` [Example 179, N-(3-acetylphenyl)-1-(6-methylpyridin-2-yl)-5-(quinoxalin-6-yl)-1H-pyrazole-3-carboxyamide]: less than 100 nM.
Take “5-([1,2,4]triazolo[1,5-α]pyridin-6-yl)-N-(4-((1,1-dioxidotetrahydrothiophen-3-yl)amino)phenyl)-1-(6-methylpyridin-2-yl)-1H-pyrazole-3-carboxyamide [Example 109]”: the half-inhibitory concentration (IC50) came out at 9.7 nM.
The same measure for `Cc1cccc(-n2nc(C(=O)Nc3ccc(C#N)cc3)cc2-c2ccc3ncnn3c2)n1` [Example 121, 5-([1,2,4]triazolo[1,5-α]pyridin-6-yl)-N-(4-cyanophenyl)-1-(6-methylpyridin-2-yl)-1-H-pyrazole-3-carboxyamide]: 10 to 100 nM.
